Source: US10184115B2, “Mutated cellobiose dehydrogenase with increased substrate specificity” (DIRECTSENS GMBH, priority 2012, dated 2019)

Tests used:
Assay type in all cases: biochemical
[1] = target: Myriococcum thermophilum cellobiose dehydrogenase (CDH, SEQ ID NO: 1) variant C312Y/W316L (Thermothelomyces myriococcoides, UniProt A9XK88, C312Y/W316L); settings: apparent, DCIP assay, pH 4.5, 30° C.; for kcat: ~ values only estimated by non linear regression
Method: (§1) Enzyme activity was assayed at 30° C. using either the DCIP (Karapetyan et al., 2005 Journal of Biotechnology 121: 34-48) or cytochrome c (Canevascini et al., 1991, European Journal of Biochemistry 198: 43-52) as electron acceptor. […] Stock solutions of carbohydrates used for kinetic measurements were prepared in the respective buffer and allowed to stand overnight for mutarotation, while stock solutions of electron acceptors were prepared in water and immediately used. The reaction stoichiometry is 1 for the two-electron acceptor DCIP (1 mole of DCIP reduced per mole of carbohydrate oxidized), but 2 for the one-electron acceptor cytochrome c. Kinetic constants were calculated by fitting the observed data to the Henri-Michaelis-Menten equation or to the adapted model for substrate inhibition using nonlinear least-squares regression and the program SigmaPlot (Systat Software, San Jose, Calif., USA).
(§2) The M. thermophilum CDH gene (EF492051, SEQ ID NO: 2) was codon-optimized for expression in Pichia pastoris according to the method described in Abad et al., 2010 and WO2010/097462 A1 (SEQ ID NO: 13) and synthesized by Gen-script (Piscataway, N.J., USA). cDNA encoding for M. thermophilum CDH was excised from the plasmid pMTSopt using EcoRI and NotI and cloned into the expression vector pPicZA along with its native signal sequence. Plasmid pCT1 was used as template for the amplification of the C. thermophilus CDH cDNA. Restriction enzymes BstBI and XbaI were used for cloning into the expression vector pPicZB along with its native signal sequence. Mutants of M. thermophilum CDH: C312Y, N313S, W316L, W316R, R622N, N721D, C312Y/W316L, C312Y/W316R and C. thermophiles CDH C310Y were prepared by a two step mutagenesis approach using PCR and DpnI (Li et al., 2002). […] SacI linearized expression plasmids were transformed into electrocompetent X-33 cells and transformants were selected on YPD Zeocin plates ([…]).
(§3) Recombinant wild-type CDH as well as variants were produced in 1 L baffled flasks. Precultures were grown overnight in 30 mL of YPD medium at 30° C. and 120 rpm. After approximately 18 hours the precultures were transferred into 1 L baffled flasks containing 200 mL BMGY medium without methanol. Induction with methanol was started immediately using a multichannel peristaltic pump (Minipuls Evolution, Gilson, Middleton, Wis., USA). Each flask was supplied eight times a day with methanol yielding a total concentration of 2% (v/v) methanol per day. Increase in activity was monitored using the DCIP and the cytochrome c enzyme assays. Cultivation was stopped at day five of methanol induction, cells removed by centrifugation (4000 rpm, 20 min) and the supernatant set to a final ammonium sulfate concentration of 20%.
(§4) The sample was loaded on a 20 mL PHE Sepharose FF column (HR26/20) equilibrated with 50 mM Na-acetate buffer pH 5.5 containing 20% ammonium sulfate. Proteins were eluted by increasing the concentration of the elution buffer (50 mM Na-acetate buffer pH 5.5) from 0 to 100% in 5 column volumes and fractions containing CDH activity were pooled. After diafiltration with a polyethersulfone flat-stack cross flow module with a cut-off of 10 kDa (Viva Flow 50, Sartorius, Göttingen, Germany) until conductivity of 5 mS cm^−1 in 20 mM Na-acetate pH 5.5 the samples were loaded on a 20 mL Q-Source column (HR26/20) equilibrated with a 20 mM Na-acetate buffer pH 5.5. CDH was eluted by increasing the concentration of the elution buffer (50 mM Na-acetate buffer pH 5.5 containing 0.5 M NaCl) from 0 to 100% in 50 column volumes. Fractions were tested for CDH activity and pooled according to the highest Reinheitszahl (RZ, calculated from the absorbance ratio 420 nm/280 nm). Purified enzymes were concentrated and diafiltered in 50 mM citrate buffer, pH 5.5, aliquoted and kept at 4° C. for further use.

[2] = target: Myriococcum thermophilum cellobiose dehydrogenase (CDH, SEQ ID NO: 1) variant C312Y (Thermothelomyces myriococcoides, UniProt A9XK88, C312Y); settings: apparent, DCIP assay, pH 4.5, 30° C.
Chain of Myriococcum thermophilum cellobiose dehydrogenase (CDH, SEQ ID NO: 1) variant C312Y (A9XK88 entry or part of it C312Y): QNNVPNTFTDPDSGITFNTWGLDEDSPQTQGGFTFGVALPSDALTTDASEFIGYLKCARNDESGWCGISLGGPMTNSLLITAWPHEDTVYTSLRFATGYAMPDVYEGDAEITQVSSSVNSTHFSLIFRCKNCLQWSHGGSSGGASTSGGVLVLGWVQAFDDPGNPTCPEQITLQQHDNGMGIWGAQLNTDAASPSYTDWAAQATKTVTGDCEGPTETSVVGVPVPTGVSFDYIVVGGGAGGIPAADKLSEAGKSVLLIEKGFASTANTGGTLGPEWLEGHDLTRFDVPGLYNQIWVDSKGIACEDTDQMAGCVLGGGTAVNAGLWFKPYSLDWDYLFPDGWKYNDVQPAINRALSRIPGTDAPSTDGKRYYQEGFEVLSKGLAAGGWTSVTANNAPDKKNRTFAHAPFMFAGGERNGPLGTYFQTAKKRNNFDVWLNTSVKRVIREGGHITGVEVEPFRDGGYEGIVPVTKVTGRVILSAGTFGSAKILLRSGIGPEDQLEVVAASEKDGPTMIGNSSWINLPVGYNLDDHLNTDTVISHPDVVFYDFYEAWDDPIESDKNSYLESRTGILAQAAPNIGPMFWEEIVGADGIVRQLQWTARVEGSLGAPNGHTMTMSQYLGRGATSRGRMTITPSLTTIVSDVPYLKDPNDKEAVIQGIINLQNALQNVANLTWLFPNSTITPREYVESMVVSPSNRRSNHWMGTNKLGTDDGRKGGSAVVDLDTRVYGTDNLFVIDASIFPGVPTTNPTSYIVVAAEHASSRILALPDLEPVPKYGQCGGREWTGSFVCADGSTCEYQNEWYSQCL
Method: as §1, §2, §3, §4

[3] = target: Myriococcum thermophilum cellobiose dehydrogenase (CDH, SEQ ID NO: 1) variant C312Y/W316R (Thermothelomyces myriococcoides, UniProt A9XK88, C312Y/W316R); settings: apparent, DCIP assay, pH 4.5, 30° C.; for kcat: ~ values only estimated by non linear regression
Chain of Myriococcum thermophilum cellobiose dehydrogenase (CDH, SEQ ID NO: 1) variant C312Y/W316R (A9XK88 entry or part of it C312Y/W316R): as the sequence (A9XK88 entry or part of it C312Y) above, with W295R counted along it
Method: as §1, §2, §3, §4

[4] = target: T1, Corynascus thermophilus CDH flavodehydrogenase domain, recombinant wild type (wtDH), amino acids 249-787 of SEQ ID NO: 7 (Thermothelomyces fergusii, UniProt E7D6B9); experiment: Steady-state kinetics, DCIP assay: C. thermophilus flavodehydrogenase domain wt; settings: apparent, pH 5.5, 30° C.
T1 sequence (E7D6B9 249-787): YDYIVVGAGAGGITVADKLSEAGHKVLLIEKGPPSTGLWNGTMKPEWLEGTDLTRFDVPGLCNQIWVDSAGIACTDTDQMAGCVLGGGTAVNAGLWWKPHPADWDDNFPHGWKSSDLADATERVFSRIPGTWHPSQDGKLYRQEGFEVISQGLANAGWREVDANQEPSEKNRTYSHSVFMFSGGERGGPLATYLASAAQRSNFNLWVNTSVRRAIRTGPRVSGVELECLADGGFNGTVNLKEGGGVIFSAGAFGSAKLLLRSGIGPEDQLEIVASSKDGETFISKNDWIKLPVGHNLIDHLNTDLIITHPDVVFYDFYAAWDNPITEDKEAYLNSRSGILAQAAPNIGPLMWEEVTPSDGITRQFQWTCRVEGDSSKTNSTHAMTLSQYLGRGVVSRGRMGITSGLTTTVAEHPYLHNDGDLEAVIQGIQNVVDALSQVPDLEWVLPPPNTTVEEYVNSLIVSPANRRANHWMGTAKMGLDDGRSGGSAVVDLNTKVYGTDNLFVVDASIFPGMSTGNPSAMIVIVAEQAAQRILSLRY
Method: as §1
The construct was confirmed by sequencing.
as §3
as §4, with “Purified enzymes were concentrated and diafiltered in 50 mM citrate buffer, pH 5.5, aliquoted and kept at 4° C. for further use.” left out

Chain of Myriococcum thermophilum cellobiose dehydrogenase (CDH, SEQ ID NO: 1) variant C312Y/W316L (A9XK88 entry or part of it C312Y/W316L): as the sequence (A9XK88 entry or part of it C312Y) above, with W295L counted along it

| Compound | kcat/KM [1] | kcat [1] | kcat [2] | kcat/KM [2] | kcat/KM [3] | kcat [3] | kcat [4] | kcat/KM [4] |
| --- | --- | --- | --- | --- | --- | --- | --- | --- |
| OC[C@H]1O[C@H](O[C@H]2[C@H](O)[C@@H](O)C(O)O[C@@H]2CO)[C@H](O)[C@@H](O)[C@@H]1O (stereo partly shown) [Maltose, maltose] | 0.62 M⁻¹ s⁻¹ | ~0.92 s⁻¹ | 0.48 s⁻¹ | 3.5 M⁻¹ s⁻¹ | 0.17 M⁻¹ s⁻¹ | ~2.7 s⁻¹ | 0.86 s⁻¹ | 296 M⁻¹ s⁻¹ |
| OC[C@H]1OC(O)[C@H](O)[C@@H](O)[C@@H]1O (stereo partly shown) [Glucose, glucose] | 13 M⁻¹ s⁻¹ | 6.4 s⁻¹ | 9.6 s⁻¹ | 50 M⁻¹ s⁻¹ | 6.2 M⁻¹ s⁻¹ | 4.3 s⁻¹ | 8.8 s⁻¹ | 79.1 M⁻¹ s⁻¹ |
